Experimental data published in patent US11634443B2, “Treprostinil prodrugs” (United Therapeutics Corporation, priority 2019, dated 2023).
Read-outs that look alike come from different tables or passages of the source. Values belong to the molecule of their own block, whether it stands above or below them.

Assays:
[1] = Measured solubility at pH 6.5; type: physicochemical
[2] = Stability and formation of treprostinil in dog cryopreserved hepatocytes
Experimental: (§1) Mixed-gender human cryopreserved hepatocytes, male Sprague-Dawley rat cryopreserved hepatocytes, and male Beagle dog cryopreserved hepatocytes were purchased from XenoTech. The hepatocytes were thawed and prepared according to the vendor's instructions, pooled into Krebs Henseleit buffer (KHB, pH 7.4), and kept on ice prior to the experiments. […] The final DMSO content in the incubation mixture was ≤0.1%. […] Aliquots of the test article were withdrawn (n=1) at 0, 15, 30, 60, and 120 minutes. […] Aliquots of 7-HC were withdrawn (n=1) at 0 and 15 minutes. The reaction was immediately terminated by adding two volumes of ice-cold acetonitrile (ACN) to the test article samples and three volumes of ACN containing internal standard to the positive control samples.

[3] = Stability and formation of treprostinil in rat cryopreserved hepatocytes
Experimental: as §1

[4] = Plasma stability and formation of treprostinil, rat plasma; type: in vitro ADME; conditions: for Formation of Treprostinil, Concentration: prodrug dosed at 1 μM
Experimental: (§2) Studies were carried out in mixed-gender human plasma male Sprague-Dawley rat plasma, and male Beagle dog plasma. All plasma was obtained from Bioreclamation and collected on K2EDTA. Plasma was adjusted to pH 7.4 prior to initiating the experiments. DMSO stocks were first prepared for the test articles. […] The vials were kept in a benchtop Thermomixer® for the duration of the experiment. […] Samples were stored at 4° C. until the end of the experiment. After the final time point was sampled, the plate was mixed and then centrifuged at 3000 rpm for 10 minutes.

[5] = Plasma stability and formation of treprostinil, dog plasma; type: in vitro ADME; conditions: for Formation of Treprostinil, Concentration: prodrug dosed at 1 μM
Experimental: as §2

[6] = Plasma stability and formation of treprostinil, human plasma; type: in vitro ADME; conditions: for Formation of Treprostinil, Concentration: prodrug dosed at 1 μM
Experimental: as §2

[7] = biological target: T1, prostaglandin D2 (PGD2) receptor 1 (DP1) (Homo sapiens, UniProt Q13258); assay: DP1 receptor cAMP assay (agonist mode); type: cell-based; conditions: for Activity, DP1 Relative to Tre: relative to treprostinil EC50 values, * partial agonists or ambiguous dose-response curves; for Activity at the DP1 receptor compared to treprostinil: cAMP, cells overexpressing human DP1
T1 construct: expressed in transfected cells; host or cells: HEK293T
T1 sequence (Q13258 1-359): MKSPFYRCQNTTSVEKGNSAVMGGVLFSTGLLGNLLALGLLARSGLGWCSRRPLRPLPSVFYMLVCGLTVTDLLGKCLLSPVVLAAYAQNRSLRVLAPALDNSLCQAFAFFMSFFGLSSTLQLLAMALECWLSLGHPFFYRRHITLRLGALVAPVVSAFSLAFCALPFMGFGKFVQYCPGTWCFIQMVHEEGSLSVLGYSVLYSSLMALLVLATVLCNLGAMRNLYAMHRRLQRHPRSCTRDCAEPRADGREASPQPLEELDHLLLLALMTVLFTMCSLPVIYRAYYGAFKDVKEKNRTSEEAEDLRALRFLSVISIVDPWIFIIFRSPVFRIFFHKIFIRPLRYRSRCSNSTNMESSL

[8] = biological target: T2, prostaglandin E2 (PGE2) receptor 2 (EP2) (Homo sapiens, UniProt P43116); assay: EP2 receptor cAMP assay (agonist mode); type: cell-based; conditions: cAMP, cells overexpressing human EP2
T2 construct: expressed in transfected cells; host or cells: HEK293T
T2 sequence (P43116 whole entry): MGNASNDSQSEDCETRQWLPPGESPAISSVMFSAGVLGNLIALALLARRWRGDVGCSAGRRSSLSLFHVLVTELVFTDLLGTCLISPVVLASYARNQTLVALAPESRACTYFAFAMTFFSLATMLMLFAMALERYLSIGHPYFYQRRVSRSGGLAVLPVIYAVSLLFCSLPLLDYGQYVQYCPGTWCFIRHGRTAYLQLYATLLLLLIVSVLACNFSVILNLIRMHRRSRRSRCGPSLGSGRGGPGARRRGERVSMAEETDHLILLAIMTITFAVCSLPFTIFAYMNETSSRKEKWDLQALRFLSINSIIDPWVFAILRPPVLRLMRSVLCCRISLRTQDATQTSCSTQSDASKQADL

[9] = Stability and formation of treprostinil in human cryopreserved hepatocytes
Experimental: as §1

[10] = Stability and formation of treprostinil in human subcutaneous skin homogenate; conditions: pooled human skin homogenate, 1 μM
[11] = Hydrolysis of treprostinil prodrugs to treprostinil at pH 6, 7 and 8 and 40 C; type: physicochemical
Text: Tables 26, 27 and 28 present data for hydrolysis of selected treprostinil prodrugs at pH 6, 7 and 8, respectively, and 40 C.

[12] = biological target: T3, prostaglandin I2 (PGI2) receptor (IP) (Homo sapiens, UniProt P43119); assay: IP receptor cAMP assay (agonist mode); type: cell-based; conditions: for Activity, IP Relative to Tre: relative to treprostinil EC50 values, image character = too high to realistically calculate
T3 construct: expressed in transfected cells; host or cells: CHO-K1
T3 sequence (P43119 whole entry): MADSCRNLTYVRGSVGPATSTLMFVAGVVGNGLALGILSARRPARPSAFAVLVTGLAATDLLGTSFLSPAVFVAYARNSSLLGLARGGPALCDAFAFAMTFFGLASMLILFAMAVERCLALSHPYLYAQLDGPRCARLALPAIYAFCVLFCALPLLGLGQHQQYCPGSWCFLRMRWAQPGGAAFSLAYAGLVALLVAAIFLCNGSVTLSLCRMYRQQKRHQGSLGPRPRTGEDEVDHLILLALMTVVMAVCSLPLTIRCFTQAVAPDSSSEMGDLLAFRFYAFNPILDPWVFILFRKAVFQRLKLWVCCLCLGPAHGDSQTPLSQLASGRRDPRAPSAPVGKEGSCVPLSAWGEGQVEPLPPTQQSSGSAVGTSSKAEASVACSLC

[13] = microsomes
[14] = microsomes; remark: listed apart in the source
[15] = Stability and formation of treprostinil in simulated intestinal fluid; type: in vitro ADME; conditions: for Formation of Treprostinil, Concentration: SIF, prodrug dosed at 1 μM
[16] = cAMP, cells overexpressing human IP

Molecule: treprostinil diphosphate [Prodrug LXXIII]
Treprostinil Concentration, 15 min [2]: 0.0506 µM
Treprostinil Concentration, 15 min [3]: 0.0097 µM
Formation of Treprostinil, Concentration ([4]; 0 min): 0 µM
Formation of Treprostinil, Concentration ([4]; 60 mm): 0 µM
Formation of Treprostinil, Concentration ([4]; 15 min): 0 µM
Formation of Treprostinil, Concentration ([4]; 30 min): 0 µM
Formation of Treprostinil, Concentration ([4]; 120 min): 0 µM
Formation of Treprostinil, Concentration ([5]; 0 min): 0 µM
Formation of Treprostinil, Concentration ([5]; 15 min): 0 µM
Formation of Treprostinil, Concentration ([5]; 30 min): 0 µM
Formation of Treprostinil, Concentration ([5]; 120 min): 0 µM
Formation of Treprostinil, Concentration [5]: 0 µM
Formation of Treprostinil, Concentration ([6]; 0 min): 0 µM
Formation of Treprostinil, Concentration ([6]; 15 min): 0 µM
Formation of Treprostinil, Concentration ([6]; 30 min): 0 µM
Formation of Treprostinil, Concentration ([6]; 120 min): 0 µM
Formation of Treprostinil, Concentration [6]: 0 µM
Activity, DP1 Relative to Tre ([7]; Table 24, image character = too high to realistically calculate): 217x
Activity, DP1 Relative to Tre ([7]; Table 25): 217x
Activity at the DP1 receptor compared to treprostinil [7]: several hundred-fold less active
Activity at the EP2 receptor compared to treprostinil [8]: inactive
Treprostinil Concentration, 15 min [9]: 0.0163 µM
Percent Remaining (Avg, n = 3) ([10]; 0 min): 100%
Percent Remaining (Avg, n = 3) ([10]; 30 min): 86.2%
Percent Remaining (Avg, n = 3) ([10]; 60 min): 71.2%
Percent Remaining (Avg, n = 3) ([10]; 120 min): 64.0%
Hydrolysis of prodrug to treprostinil, % Area, t = 1 week ([11]; pH 6, 40 C): 0.00 % Area
Hydrolysis of prodrug to treprostinil, % Area, t = 2 weeks ([11]; pH 6, 40 C): 0.00 % Area
Hydrolysis of prodrug to treprostinil, % Area, t = 3 weeks ([11]; pH 6, 40 C): 0.00 % Area
Hydrolysis of prodrug to treprostinil, % Area, t = 1 week ([11]; pH 7, 40 C): 0.00 % Area
Hydrolysis of prodrug to treprostinil, % Area, t = 2 weeks ([11]; pH 7, 40 C): 0.00 % Area
Hydrolysis of prodrug to treprostinil, % Area, t = 3 weeks ([11]; pH 7, 40 C): 0.00 % Area
Hydrolysis of prodrug to treprostinil, % Area, t = 1 week ([11]; pH 8, 40 C): 0.00 % Area
Hydrolysis of prodrug to treprostinil, % Area, t = 2 weeks ([11]; pH 8, 40 C): 0.00 % Area
Hydrolysis of prodrug to treprostinil, % Area, t = 3 weeks ([11]; pH 8, 40 C): 0.00 % Area
Activity, IP Relative to Tre ([12]; Table 24, * partial agonists or ambiguous dose-response curves): 208x
Activity, IP Relative to Tre ([12]; Table 25): 208x
Fold less active than treprostinil at the IP receptor [12, 16]: approximately 200 fold

Molecule: treprostinil diacetate [Prodrug LXXII]
Treprostinil Concentration, 0 min [2]: 0.0636 µM
Treprostinil Concentration, 15 min [2]: 0.671 µM
Treprostinil Concentration, 30 min [2]: 0.541 µM
Treprostinil Concentration, 60 min [2]: 0.465 µM
Treprostinil Concentration, 120 min [2]: 0.401 µM
CLint ([2]; hepatocytes): >0.0308 mL/min/mg protein
Half-Life ([2]; hepatocytes): <0.25 h
Half-Life [13]: <0.167 h
Treprostinil Concentration, 0 min [3]: 0 µM
Treprostinil Concentration, 15 min [3]: 0.24 µM
Treprostinil Concentration, 30 min [3]: 0.301 µM
Treprostinil Concentration, 60 min [3]: 0.298 µM
Treprostinil Concentration, 120 min [3]: 0.274 µM
Half-Life [14]: <0.167 h
Formation of Treprostinil, Concentration ([4]; 0 min): 0 µM
Half-Life ([4]; 1 μM, 37° C.): >2 h
Formation of Treprostinil, Concentration ([4]; 60 mm): 0.00595 µM
Formation of Treprostinil, Concentration ([4]; 15 min): 0 µM
Formation of Treprostinil, Concentration ([4]; 30 min): 0 µM
Percent Remaining ([4]; 60 min, 1 μM, 37° C.): 83.6%
Percent Remaining ([4]; 120 min, 1 μM, 37° C.): 79.7%
Formation of Treprostinil, Concentration ([4]; 120 min): 0.0151 µM
Formation of Treprostinil, Concentration ([5]; 0 min): 0 µM
Half-Life ([5]; 1 μM, 37° C.): >2 h
Percent Remaining ([5]; 15 min, 1 μM, 37° C.): 96.7%
Formation of Treprostinil, Concentration ([5]; 15 min): 0 µM
Formation of Treprostinil, Concentration ([5]; 30 min): 0 µM
Percent Remaining ([5]; 120 min, 1 μM, 37° C.): 82.9%
Formation of Treprostinil, Concentration ([5]; 120 min): 0 µM
Formation of Treprostinil, Concentration [5]: 0 µM
Formation of Treprostinil, Concentration ([6]; 0 min): 0 µM
Half-Life ([6]; 1 μM, 37° C.): >2 h
Formation of Treprostinil, Concentration ([6]; 15 min): 0 µM
Formation of Treprostinil, Concentration ([6]; 30 min): 0 µM
Percent Remaining ([6]; 120 min, 1 μM, 37° C.): 86.5%
Formation of Treprostinil, Concentration ([6]; 120 min): 0 µM
Formation of Treprostinil, Concentration [6]: 0 µM
Activity at the DP1 receptor compared to treprostinil [7]: several hundred-fold less active
Activity at the EP2 receptor compared to treprostinil [8]: non-traditional dose response curve
Treprostinil Concentration, 0 min [9]: 0.00458 µM
Treprostinil Concentration, 15 min [9]: 0.562 µM
Treprostinil Concentration, 30 min [9]: 0.491 µM
Treprostinil Concentration, 60 min [9]: 0.433 µM
Treprostinil Concentration, 120 min [9]: 0.364 µM
Hydrolysis of prodrug to treprostinil, % Area, t = 1 week ([11]; pH 6, 40 C): 0.00 % Area
Hydrolysis of prodrug to treprostinil, % Area, t = 2 weeks ([11]; pH 6, 40 C): 0.00 % Area
Hydrolysis of prodrug to treprostinil, % Area, t = 3 weeks ([11]; pH 6, 40 C): 0.00 % Area
Hydrolysis of prodrug to treprostinil, % Area, t = 1 week ([11]; pH 7, 40 C): 0.00 % Area
Hydrolysis of prodrug to treprostinil, % Area, t = 2 weeks ([11]; pH 7, 40 C): 0.00 % Area
Hydrolysis of prodrug to treprostinil, % Area, t = 3 weeks ([11]; pH 7, 40 C): 0.00 % Area
Hydrolysis of prodrug to treprostinil, % Area, t = 1 week ([11]; pH 8, 40 C): 0.00 % Area
Hydrolysis of prodrug to treprostinil, % Area, t = 2 weeks ([11]; pH 8, 40 C): 0.00 % Area
Hydrolysis of prodrug to treprostinil, % Area, t = 3 weeks ([11]; pH 8, 40 C): 0.00 % Area
Half-Life ([15]; SIF pH 6.8, 1 μM, 37° C.): >2 h
Formation of Treprostinil, Concentration ([15]; 0 min): 0 µM
Formation of Treprostinil, Concentration ([15]; 15 min): 0 µM
Formation of Treprostinil, Concentration ([15]; 30 min): 0 µM
Formation of Treprostinil, Concentration ([15]; 60 min): 0 µM
Formation of Treprostinil, Concentration ([15]; 120 min): 0.0126 µM
Activity at the IP receptor compared to treprostinil [12, 16]: inactive

The remaining lines, values ahead:

Measured Sol [1]: 10 mg/mL
Molecule: CCCCC[C@@H](CC[C@@H]1[C@H]2Cc3cccc(OCC(=O)O)c3C[C@H]2C[C@H]1O)OC(=O)OCC [XVI]

Measured Sol [1]: 10 mg/mL
Molecule: CCCCC[C@@H](CC[C@@H]1[C@H]2Cc3cccc(OCC(=O)O)c3C[C@H]2C[C@H]1O)OC(=O)OC(C)C [XVII]

Measured Sol [1]: > 10 mg/mL
Molecule: CCCCC[C@@H](CC[C@@H]1[C@H]2Cc3cccc(OCC(=O)O)c3C[C@H]2C[C@H]1O)OP(=O)(O)O [VI]
